Measured values taken from PubChem BioAssay (NCI).
Values joined by “and” are separate entries in the source; they are usually repeats but may differ in a detail not shown here. Identical values can stand only once.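 Assay format: 96-well plates, 48-hour exposure. GI50 = concentration required for 50% inhibition of growth. TGI: total growth inhibition.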

Experiments:
Assay in all cases: NCI tumour cell line growth inhibition, 48 h
TK-10 renal = tested on: TK-10 renal
T-47D breast = tested on: T-47D breast
ACHN renal = tested on: ACHN renal
OVCAR-8 ovarian = tested on: OVCAR-8 ovarian
SF-268 CNS = tested on: SF-268 CNS
UACC-62 melanoma = tested on: UACC-62 melanoma
MDA-MB-435 = tested on: MDA-MB-435
IGROV1 ovarian = tested on: IGROV1 ovarian
SR leukemia = tested on: SR leukemia
OVCAR-3 ovarian = tested on: OVCAR-3 ovarian

Row | Compound | GI50 (TK-10 renal) | TGI (TK-10 renal) | GI50 (T-47D breast) | TGI (T-47D breast) | GI50 (ACHN renal) | TGI (ACHN renal) | GI50 (OVCAR-8 ovarian) | TGI (OVCAR-8 ovarian) | GI50 (SF-268 CNS) | TGI (SF-268 CNS) | GI50 (UACC-62 melanoma) | TGI (UACC-62 melanoma) | GI50 (MDA-MB-435) | TGI (MDA-MB-435) | GI50 (IGROV1 ovarian) | TGI (IGROV1 ovarian) | GI50 (SR leukemia) | GI50 (OVCAR-3 ovarian) | TGI (OVCAR-3 ovarian) | TGI (SR leukemia)
1 | CN1CCN(c2nc(-c3csc(-c4cccs4)n3)cc3ccccc23)CC1 | 1.98 µM | 3.65 µM | 1.85 µM | 4.56 µM | 1.8 µM | 3.25 µM | 1.89 µM | 3.97 µM | 1.82 µM | 3.6 µM | 1.69 µM | 3.15 µM | 1.73 µM | 3.24 µM | 1.57 µM | 3.12 µM | 3.1 µM | 1.84 µM | 3.64 µM | 
2 | O=C1N(Cc2ccccc2Cl)c2ccccc2C12NN=C(c1cccc(Cl)c1)S2 (stereo not drawn) | 1.77 µM | 3.15 µM | 1.62 µM | 3.1 µM | 1.81 µM | 3.43 µM | 1.96 µM | 4.41 µM | 1.59 µM | 3.26 µM | 1.76 µM | 3.52 µM | 1.75 µM | 3.28 µM | 1.78 µM | 3.75 µM | 2.14 µM | 1.83 µM | 3.43 µM | 5.67 µM
3 | CCc1nc(N)nc(N)c1-c1ccc(Cl)c(N=[N+]=[N-])c1 | 8.78 µM and 29.3 µM | > 100 µM |  | > 96.2 µM | 2.33 µM and 4.75 µM | > 100 µM | 15.4 µM and 4.79 µM | > 100 µM |  | > 100 µM | 0.78 µM and 3.13 µM | 24.8 µM and 26.8 µM |  | 36.7 µM and > 83.7 µM | 2.09 µM and 4.22 µM | > 91.2 µM | 1.3 µM and 2.68 µM |  | 64.6 µM and 80 µM | 19.2 µM and 43.9 µM
4 | NC(=O)c1sc(-n2cnc3cc(C(F)(F)F)ccc32)cc1OCc1ccccc1Br | > 25 µM | > 25 µM | > 21 µM | > 25 µM | > 22.4 µM | > 25 µM | 21.4 µM | > 25 µM | > 17.5 µM | > 25 µM | > 21.6 µM | > 25 µM | > 16.5 µM | > 25 µM | > 25 µM | > 25 µM | > 21.2 µM | > 16.7 µM | > 25 µM | > 25 µM
5 | CCCCCCNCc1cc(C(C)(C)C)cc(CNCCCCCC)c1O | 1.86 µM | 3.3 µM | 1.65 µM | 3.29 µM | 1.62 µM | 2.97 µM | 1.75 µM | 3.37 µM | 1.7 µM | 3.32 µM | 1.55 µM | 2.91 µM | 1.61 µM | 2.98 µM | 1.76 µM | 3.36 µM | 1.73 µM | 1.73 µM | 3.15 µM | 3.86 µM
6 | COc1ccc(CCN2CCC(CN(C)Cc3cnn(-c4ccccc4)c3)CC2)cc1 | 16.3 µM | 32.6 µM | 10.4 µM | 30.7 µM | 10.9 µM | 33 µM | 16.5 µM | 37.5 µM | 14.2 µM | 34.7 µM | 2.63 µM | 7.36 µM | 2.54 µM | 6.8 µM | 25.6 µM | > 100 µM | 3.92 µM | 20.4 µM | 52.4 µM | 25.2 µM
7 | O=[N+]([O-])c1cc2no[n+]([O-])c2cc1N1CCCCC1 |  | 9.08 µM |  | 5.53 µM |  | 7.21 µM |  | 5.74 µM |  | 41.2 µM |  | 33.8 µM |  | 9.44 µM |  | 8.83 µM |  |  |  | 12.2 µM
8 | Cc1ccc(C2NC(=O)c3ccccc3N2)c(C)c1 (stereo not drawn) |  | > 100 µM |  | > 100 µM |  | > 100 µM |  | > 71.5 µM |  | > 100 µM |  | > 100 µM |  | 1.19 µM |  | > 100 µM |  |  | 4.68 µM | > 71.8 µM
9 | N#CC(C#N)=C/C=C(\Sc1ccc(F)cc1Cl)c1ccc(Cl)cc1 | 0.5 µM | 2.08 µM | 0.659 µM | 5.19 µM | 0.883 µM | 2.14 µM | 0.601 µM | 6.46 µM | 0.457 µM | 1.9 µM | 2.18 µM | 6.16 µM | 0.35 µM | 1.73 µM | 1.81 µM | > 54.5 µM | 0.0756 µM | 0.762 µM | 2.64 µM | > 100 µM
10 | COc1ccc2c(c1)-c1nn(CCCN(C)C)c3ccc([N+](=O)[O-])c(c13)N2 | 0.345 µM and 0.809 µM | 4.69 µM and 7.86 µM | 0.668 µM and 0.308 µM | 11.4 µM and 2.27 µM | 0.102 µM and 0.26 µM | 1.25 µM and 3.69 µM |  | 4.19 µM and 5.06 µM |  | 6.12 µM and 6.94 µM | 0.314 µM and 0.934 µM | 2.44 µM and 5.2 µM | 0.165 µM and 0.593 µM | 2.9 µM | 0.215 µM and 0.507 µM | 3.48 µM and 6.59 µM | 1.27 µM | 0.339 µM and 1.11 µM | 3.95 µM and 7.29 µM | 
11 | COc1ccc(-c2c3c(nc4n[nH]c(-c5ccc(Cl)cc5)c24)-c2ccccc2C(=O)C3=O)cc1 | 1.8 µM | 3.32 µM | 1.03 µM | 9.47 µM | 1.46 µM | 3.3 µM | 1.59 µM | 3.44 µM | 1.4 µM | 2.99 µM | 1.59 µM | 3.85 µM | 1.54 µM | 3.43 µM | 1.54 µM | 3.22 µM | 2.57 µM | 1.28 µM | 4.33 µM | > 100 µM
12 | CN(CCC(=O)/C(=C\c1ccccc1)c1ccc(Cl)cc1)Cc1ccccc1 | 2.34 µM | 5.43 µM | 2.5 µM | 9.01 µM | 2.25 µM | 5.46 µM | 3.32 µM | 14.8 µM | 2.76 µM | 10 µM | 1.91 µM | 4.37 µM | 1.83 µM | 4.07 µM |  |  | 0.521 µM | 2.03 µM | 5.04 µM | 5.81 µM
13 | O=C(CCCN1CCC(C(O)c2ccc(F)cc2)CC1)c1ccc(F)cc1 (stereo not drawn) |  | 86.8 µM |  | 137 µM |  | 99.9 µM |  | 125 µM |  | 122 µM |  | 114 µM |  | 109 µM |  | 130 µM |  |  | 116 µM | 201 µM
14 | O=C(CC1C=Cc2ccccc2N1C(=O)c1ccccc1)c1ccccc1 (stereo not drawn) |  | > 100 µM |  | > 100 µM |  | > 100 µM |  | > 100 µM |  | > 100 µM |  | 28.5 µM |  | 47.8 µM |  | > 100 µM |  |  | 34.7 µM | 35.4 µM
15 | CCC(C)C(=O)OCC(=O)c1ccc(-c2ccccc2)cc1 (stereo not drawn) |  | > 100 µM |  | > 100 µM |  | > 100 µM |  | > 100 µM |  | > 100 µM |  | > 100 µM |  | > 100 µM |  | > 100 µM |  |  | > 100 µM | > 100 µM
16 | CN(C)c1ccc(/C=N/S(=O)(=O)c2ccc(-n3c(-c4ccccc4)nc4c(Br)cc(Br)cc4c3=O)cc2)cc1 | 45.8 µM | > 100 µM | 24.5 µM | 88 µM | 40.4 µM | > 100 µM | 34.2 µM | > 100 µM | 48.5 µM | > 100 µM | 28.3 µM | > 92.8 µM | 42 µM | > 90.7 µM | 25.6 µM | > 100 µM | 1 µM | 34.2 µM | > 100 µM | 14.9 µM
17 | CCOc1ccc2c(c1)c(CC(=O)O)cn2C |  | > 100 µM |  | > 100 µM |  | > 100 µM |  | > 100 µM |  | > 100 µM |  | > 100 µM |  | > 100 µM |  |  |  |  | > 100 µM | > 100 µM
18 | COC(=O)C(C(=O)OC)C(Br)C(Br)C(Br)c1ccccc1 (stereo not drawn) |  |  | 2.03 µM | 4.92 µM | 2.8 µM | 7.16 µM | 4.86 µM | 17.2 µM | 14.6 µM | 29.6 µM | 9.46 µM | 21.5 µM | 5.66 µM | 20.7 µM | 4.92 µM | 27 µM | 2.47 µM | 2.98 µM | 7.63 µM | 6.39 µM
19 | COc1cnc2c(c1)C(=O)c1c-2n(CCCN2CCC(O)CC2)c(=O)c2cc(Cl)ccc12 | 13 µM | 28.7 µM | 0.656 µM | 4.69 µM | 0.0903 µM | 1.5 µM | 0.665 µM | 3.53 µM | 0.211 µM | 2.34 µM | 0.191 µM | 13.7 µM | 12.9 µM | 25.7 µM |  |  | 0.0888 µM | 1.4 µM | 3.03 µM | 13.2 µM
20 | COc1cc(Cl)cc(-c2nn(-c3cccc(NC(=O)Nc4ccc(Cl)c(Cl)c4)c3)cc2-c2ccncc2)c1 |  |  | 2.78 µM | 18.9 µM | 3.23 µM | > 100 µM | 2.3 µM | 11.2 µM | 3.27 µM | > 100 µM | 2.4 µM | 16.3 µM | 2.08 µM | 6 µM | 4.35 µM | > 100 µM | 1.54 µM | 1.56 µM | 29.4 µM | 5.8 µM
21 | Cc1[nH]c2cc(F)ccc2c1-c1nc2c3cccnc3c3ncccc3c2[nH]1 | 0.396 µM | 2.34 µM | 0.341 µM | 1.28 µM | 0.254 µM | 1.45 µM | 0.216 µM | 1.22 µM | 0.21 µM | 2.2 µM |  |  | 0.342 µM | 1.48 µM |  |  | 0.0723 µM | 0.209 µM | 1.56 µM | 0.797 µM
